Source: patent US6949250B2, “Selective algaecides for control of cyanochloronta” (The United States of America as represented by the …, priority 2002, dated 2005)

Experiments:
Oscillatoria perornata [1] = test: DNA1-19-1 first pond efficacy study (limnocorrals): O. perornata abundance; format: in vivo
green algae = test: DNA2-59-1 second pond efficacy study: green algae abundance; format: in vivo; details: 0.3 μM
Description: (§1) The method described by Schrader et al. (2000) was used to determine the potential for using the anthraquinone derivatives as selective algicides in catfish aquaculture ponds. All catfish ponds used in efficacy tests were maintained using commercial pond management practices and were located at the Thad Cochran Pond Facility, Mississippi State University, Stoneville, Miss. Anthraquinone analogs were dissolved in deionized water before application to water within the limnocorrals.
(§2) Limnocorrals in which test compound was applied to the enclosed water were randomly selected, and control (no test compound applied) limnocorrals were included in each efficacy study. For each sampling, two water samples (250 mL) were obtained from within each limnocorral (approximately 6-8 cm below the water surface and from opposite sides of each limnocorral) and mixed together in a 500 mL sample bottle to provide a representative sample of the water contained within the limnocorral.
(§3) In the second efficacy test with DNA2-59-1, six limnocorrals (1.53 m in diameter and 1.53 m high) were placed in a 0.1-ha earthen pond containing a heavy bloom of O. perornata. The same delay in mixing the water within the limnocorrals used in the first efficacy study was utilized. Water within three randomly selected limnocorrals received an application rate of 0.3 μM DNA2-59-1, and the other three limnocorrals were controls. […]

[2] = DNA2-59-1 third efficacy study: dissipation rate and half-life in pond water (HPLC); format: physicochemical; details: for DNA2-59-1 Levels in Pond Water: third study, 0.3 μM applied
Description: For the third efficacy test with DNA2-59-1, twelve limnocorrals (2.44 m in diameter and 1.53 m high) were placed in a 4-ha earthen pond containing a bloom of O. perornata. The same procedures, application rate (0.3 μM), and methods used in the second efficacy test of DNA2-59-1 were used except six limnocorrals were randomly selected to receive an application rate of 0.3 μM DNA2-59-1 while the other six limnocorrals were controls. Water samples were collected before application of DNA2-59-1, 20 minutes after application, and at days 1, 2, 3, 4, and 7. The same tests and methods used in the first efficacy testing of DNA2-59-1 were used.
Approximately 15 mL each of water samples from DNA2-59-1 efficacy testing that were designated for HPLC analysis were placed in scintillation vials and held in a freezer. Water samples were later melted at room temperature, and 5 mL of each sample was then filtered through a nylon membrane filter (13 mm diameter and 0.45 μm; Whatman International, Maidstone, England) using a 5 mL syringe (Hamilton Company, Reno, Nev.) and a 13 mm syringe filter holder (Fisher Scientific Company, Pittsburgh, Pa.). Filtrate (1 mL) was placed in 2 mL vials and capped using teflon/rubber septum caps (National Scientific Company, Jeddah, Saudia Arabia). The filter paper was removed and placed in a scintillation vial to which 2 mL of HPLC grade methanol (Fisher Scientific, Fair Lawn, N.J.) was added and then sonicated for 5 minutes. The methanol solution was then filtered using a nylon membrane acrodisc (25 mm and 0.45 μm; Pall Life Sciences, Ann Arbor, Mich.), and the methanol filtrate was placed in separate 2 mL vials.
Filtrate samples were analyzed using a Waters 2690 Alliance HPLC containing a 996 PDA detector and a XTerra RP 18 column (150 mm×4.6 mm, 5 μm particle size; Waters Corporation, Milford, Mass.). The mobile phase consisted of 25 mM sodium dihydrogenphosphate in 0.1% phosphoric acid (A) and acetonitrile (B). The gradient was from 80A/20B in 15 minutes to 40A/60B. After each run, a 5 minute wash with methanol was performed, followed by equilibrating the column for 10 minutes with 80A/20B. The temperature was set at 40° C., the flow rate was 1 mL/minute, the detection wavelength 256 nm, and the sample injection volume was 10 μL. All solvents used were HPLC grade (Fisher Scientific, Fair Lawn, N.J.).
Means and standard deviations of data were determined and graphed. The graphs were used to help determine the half-life of DNA2-59-1 in the pond water. Because of the short duration of the first efficacy study, the half-life of DNA2-59-1 in the pond water could not be determined.

chlorophyll a [3] = test: DNA2-59-1 third pond efficacy study: chlorophyll a; format: in vivo; details: 0.3 μM, 24 hours after application
Description: as §1, §2
(§4) For the third efficacy test with DNA2-59-1, twelve limnocorrals (2.44 m in diameter and 1.53 m high) were placed in a 4-ha earthen pond containing a bloom of O. perornata. […]

2-methylisoborneol = test: DNA2-59-1 first pond efficacy study: MIB levels; format: in vivo; details: 0.3 and 1 μM
Description: as §1
(§5) Limnocorrals in which test compound was applied to the enclosed water were randomly selected, and control (no test compound applied) limnocorrals were included in each efficacy study. […]
(§6) In the first study, application rates of 0.1 μM (37.7 μg/L), 0.3 μM ([…]), and 1.0 μM (377 μg/L) of DNA2-59-1 were tested using limnocorrals (three replicates per concentration) that were of the same type used for testing DNA1-19-1. […] Water samples were also analyzed to determine the persistence of DNA2-59-1 in the pond water, and this analysis was performed by using high-pressure liquid chromatography (HPLC) (method and results are described later).

chlorophyll a [4] = test: DNA2-59-1 second pond efficacy study: chlorophyll a; format: in vivo; details: 0.3 μM, for three days after application
Description: as §1, §2, §3

Cylindrospermopsis spp. = test: DNA2-59-1 third pond efficacy study: Cylindrospermopsis spp. abundance; format: in vivo; details: 0.3 μM, one day after application
Description: as §1, §2, §4

diatoms = test: DNA2-59-1 second pond efficacy study: diatom abundance; format: in vivo, diatoms (division Chromophyta, class Bacillariophyceae); details: 0.3 μM
Description: as §1, §2, §3

Oscillatoria perornata [5] = test: DNA2-59-1 third pond efficacy study: O. perornata abundance; format: in vivo; details: 0.3 μM, within 24 hours after application
Description: as §1, §2, §4

geosmin = test: DNA2-59-1 first pond efficacy study: geosmin levels; format: in vivo; details: 1 μM
Description: as §1, §5, §6

**Q.** With `CCN(CC)CCCC(C)NCc1ccc2c(c1)C(=O)c1ccccc1C2=O.O=P(O)(O)O.O=P(O)(O)O` (stereo not shown) [DNA1-19-1, 2-[methylamino-N-(1′-methyl-4′-N,N-diethylaminobutyl)]-9,10-anthraquinone diphosphate] as the molecule, how does the “selectively reducing numbers of O. perornata and MIB levels in pond water (result in words)” value (Oscillatoria perornata [1]; applied at 2 μM) read?
**A.** effective

**Q.** And the “Numbers of filaments of O. perornata (result in words)” value (Oscillatoria perornata [1]; first study, 2 μM, numbers began to increase within 3 days)?
**A.** significantly reduced

**Q.** For `CC(C)NCc1ccc2c(c1)C(=O)c1ccccc1C2=O` [DNA2-59-1, 2-[methylamino-N-(1′-methylethyl)]-9,10-anthraquinone monophosphate], which “Green algae (result in words)” value (green algae) is on record?
**A.** not significantly affected

**Q.** What about the half-life at 0.3 μM ([2]; pond water in limnocorrals (earthen catfish pond), third efficacy study) of the same molecule?
**A.** 19 h

**Q.** What about the DNA2-59-1 Levels in Pond Water ([2]; 0 hours) of the same molecule?
**A.** 90.6 ± 7.9 µg/L

**Q.** And the DNA2-59-1 Levels in Pond Water ([2]; 24 hours)?
**A.** 31.5 ± 4.4 µg/L

**Q.** And the DNA2-59-1 Levels in Pond Water ([2]; 48 hours)?
**A.** 9.2 ± 3.2 µg/L

**Q.** And the DNA2-59-1 Levels in Pond Water ([2]; 72 hours)?
**A.** 2.2 ± 0.5 µg/L

**Q.** What about the DNA2-59-1 Levels in Pond Water ([2]; 96 hours) of the same molecule?
**A.** 0 µg/L

**Q.** What about the “Chlorophyll a levels (result in words)” value (chlorophyll a [3]) of the same molecule?
**A.** significantly reduced

**Q.** What about the “decrease of MIB levels compared to controls and 0.1 μM (result in words)” value (2-methylisoborneol) of the same molecule?
**A.** to a greater degree and significantly more

**Q.** And the “Chlorophyll a levels (result in words)” value (chlorophyll a [4])?
**A.** significantly lower

**Q.** And the “Numbers of Cylindrospermopsis spp. (result in words)” value (Cylindrospermopsis spp.)?
**A.** significantly reduced

**Q.** And the “diatoms (result in words)” value (diatoms)?
**A.** not significantly affected

**Q.** What about the “Numbers of O. perornata (result in words)” value (Oscillatoria perornata [5]) of the same molecule?
**A.** significantly reduced

**Q.** And the “decrease of geosmin levels compared to controls and 0.1 and 0.3 μM (result in words)” value (geosmin)?
**A.** to a greater degree and significantly more
